Test results as given in US12115393B2, “Methods for setting parameters of a neurostimulation device and associated devices” (INSTITUT NATIONAL DE LA SANTE ET DE LA RECHERCHE MEDICALE …, priority 2019, dated 2024).

How the values were obtained:
Assay type in all cases: in vivo
[1] = test system: unpredictable chronic mild stress (UCMS) mouse model; test: nest-building test in UCMS mice; conditions: 15 mg/kg fluoxetine chronically through drinking water from day 7, tested day 38, score max. 5
Protocol: (§1) From day 7 on, mice from the Veh (vehicle) and the Flx (fluoxetine) groups were chronically treated through drinking water respectively with water alone (n=12) or 15 mg/kg fluoxetine (n=12).
(§2) The main cohort of fifty-three mice followed the UCMS regimen from day 0 to day 35, as described previously. Briefly, mice were isolated in 24×11×12 cm cages without environmental enrichment and submitted to daily random socio-environmental stressors including: exposition to another mouse bedding, removal of sawdust, contention and light dark cycle perturbations.
(§3) Pharmacological treatments (15 mg/kg fluoxetine) were given from day 7 on to achieve chronic administration at week 5. The chronic ultrasound neurostimulation treatment was given during the fifth week of the UCMS (stressors: 08:00-12:00 AM, treatment: 02:00 PM). […]
(§4) Behaviors were assessed during the dark phase of the light-dark cycle, i.e., the active, awoken phase for the animals. The effects of ultrasound neurostimulation were assessed against those of the fluoxetine treatment from day 38 to day 43 with 1) the nest-building test, 2) the reward-maze test and 3) the open field task.
1. […] After 5 hours in standard condition, the state of the nest, built in cotton, was scored on a predefined scale. […]

[2] = test system: unpredictable chronic mild stress (UCMS) mouse model; test: reward-maze test in UCMS mice
Protocol: as §1, §2, §3, §4
2. […] The latency to reach the reward and its consumption were measured for up to 5 min.

[3] = test system: unpredictable chronic mild stress (UCMS) mouse model; test: open-field task in UCMS mice; conditions: 15 mg/kg fluoxetine in drinking water from day 7, tested day 43, p<0.10
Protocol: as §1, §2
Pharmacological treatments (15 mg/kg fluoxetine) were given from day 7 on to achieve chronic administration at week 5. […]
as §4
3. […] The latency to reach the center area (d=10 cm) and the number of center-crossings were measured for up to 5 min. The movements of the mice were recorded and tracked with the software EthoVision XT (Noldus Information Technology, Netherlands) to generate individual heat maps, color-coded for position frequencies over the duration of the test.

Structure (SMILES): CNCCC(Oc1ccc(C(F)(F)F)cc1)c1ccccc1 (stereo not shown) [fluoxetine]
- nest-building score (ability to build a nest within 5 hours) [1]: no effect
- consumption of the reward ([2]; 15 mg/kg fluoxetine in drinking water from day 7, tested day 40, Veh vs Flx p=0.033): modified
- latency to travel across the apparatus and reach the food reward ([2]; 15 mg/kg fluoxetine in drinking water from day 7, tested day 40, Veh vs Flx p=0.042): decreased three-fold
- number of center-crossings [3]: did not significantly affect
